The text below walks through data of patent publication US9290468B2, “Benzoheterocyclic compounds and use thereof” (SHANGHAI KECHOW PHARMA, INC., priority 2012, dated 2016).

For one assay, the system named is A375 cells. Put plainly: Cell growth inhibition assay (MTT), A375 cells. The class given is cell-based. To be noted: Homo sapiens, A-375, 72 h.
In another assay the test system is Interleukin-4 (IL-4). Description: Inhibition of Interleukin-4 (IL-4), GFP+ of CD4+ spleen cells by flow cytometry. To be noted: Mus musculus, 48 h, read-out: IL-4 inhibition.
The subject of a further assay is HT29 cells. Description: Cell growth inhibition assay (MTT), HT29 cells. The format is cell-based. To be noted: Homo sapiens, HT-29, 72 h.
The test system of assay [1] is HT29 human colon cancer cells xenograft. Description: In vivo anti-tumor efficacy in HT29 tumor xenograft model. On the set-up: species or system BALB/c nude mice. To be noted: 20 mg/kg, oral gavage once daily, after 16 days of treatment, HT29 xenograft in nude mice.
Experimental: Female BALB/c nude mice of 5-6 week old were used for all the in vivo efficacy studies. Mice were injected with HT29 human colon cancer cells at 5×10^6 cells per 100 μL SFM into right flank. Tumor volumes were monitored by caliper measurement using the formula: tumor volume (mm^3)=(w^2×l)/2, where w=width and c=length in mm of the tumor. When the tumor volumes reached 150˜300 mm^3, mice were randomized to treatment groups (5˜10 mice per group) to receive compounds (20 mg/kg doses) or vehicle by oral gavage once daily for 16 days. The tumor volumes and body weight were measured every 2-3 days for data analysis. Tumor growth inhibition (TGI) and body weight changes were calculated compared to the vehicle treated groups.
The subject of the next assay is COLO 205 tumor xenograft. Put plainly: In vivo anti-tumor efficacy in COLO205 tumor xenograft model. To be noted: 5 mg/kg QD by gavage x 18 days.
The test system of the next assay is TNF-α. Description: Inhibition of TNF-α expression, LPS-stimulated spleen cells, ELISA. As to conditions: Mus musculus, 24 h, read-out: Inhibition of TNF-α expression. (In an ELISA, binding on a coated surface is turned into a signal by an enzyme label.)

Experimental for A375 cells: (§1) When the HT29 cells reach their exponential phase of growth, 4×10^3 cells/well were plated into 96-well plates, the edge of plates were filled with sterility PBS, at the same time, filled three holds only with medium as blank group. • 2. The plates were cultured in a humidified 5% CO2 incubator at 37° C. for 24 h, and allowed to proliferate for reaching their exponential phase of growth. • 3. Samples were dissolved in DMSO (dimethyl sulfoxide), the concentration of Samples is 10 mmol/L, 1 mmol/L, 100 μmol/L, 10 μmol/L, 1 μmol/L, 0.1 μmol/L, and further diluted with cell culture medium. The final does concentration were 10 μmol/L, 1 μmol/L, 100 nmol/L, 10 nmol/L, 1 nmol/L, 0.1 nmol/L, 0 nmol/L (the control group). The final DMSO concentration used was 1‰ of total volume of medium in all treatments, including the control group. • Blank: medium • Control: the same dose of DMSO with experiment. Group, the DMSO was diluted with cell perfect culture medium. • Experiment: the cells were treated with the concentration of 10 μmol/L, 1 μmol/L, 100 nmol/L, 10 nmol/L, 1 nmol/L, 0.1 nmol/L. • 4. The plates were cultured in a humidified 5% CO2 incubator at 37° C. for 72 h. 20 μL of 3-(4,5-dimethylthiazol-2-yl)-2,5-diphenyltetrazolium bromide (MTT) reagent (5 mg/mL) in phosphate buffered serum (PBS) was added to each well. • 5. The plates were cultured in a humidified 5% CO2 incubator at 37° C. for 4 h. Subsequently, the solution was aspirated and 150 uL dimethyl sulfoxide was added to release the formed formazan crystals from the living cells mitochondria into the solution. • 6. After moderated shaking for 3 min, absorbance was measured at 490 nm using microplate reader. Methods 2 (A375) • 1. When the A375 cells reach their exponential phase of growth, 5×10^3 cells/well were plated into 96-well plates, the edge of plates were filled with sterility PBS, at the same time, filled three holds only with medium as blank group. • 2. The plates were cultured in a humidified 5% CO2 incubator at 37° C. for 24 h. Allowed to proliferate for reaching their exponential phase of growth. • 3. Samples were dissolved in DMSO (Dimethyl Sulfoxide), the concentration of Samples is 10 mmol/L, 1 mmol/L, 100 μmol/L, 10 μmol/L, 1 μmol/L, 0.1 μmol/L, and further diluted with cell culture medium. The final does concentration were 10 μmol/L, 1 μmol/L, 100 nmol/L, 10 nmol/L, 1 nmol/L, 0.1 nmol/L, 0 nmol/L (the control group). The final DMSO concentration used was 1‰ of total volume of medium in all treatments, including the control group. • Blank: medium • Control: the same dose of DMSO with experiment group, the DMSO was diluted with cell perfect culture medium • Experiment: the cells were treated with the concentration of 10 μmol/L, 1 μmol/L, 100 nmol/L, 10 nmol/L, 1 nmol/L, 0.1 nmol/L • 4. The plates were cultured in a humidified 5% CO2 incubator at 37° C. for 72 h. 20 μL of 3-(4,5-dimethylthiazol-2-yl)-2,5-diphenyltetrazolium bromide (MTT) reagent (5 mg/mL) in phosphate buffered serum (PBS) was added to each well. • 5. The plates were cultured in a humidified 5% CO2 incubator at 37° C. for 4 h. Subsequently, the solution was aspirated and 150 uL dimethyl sulfoxide was added to release the formed formazan crystals from the living cells mitochondria into the solution. • 6. After moderated shaking for 3 min, absorbance was measured at 490 nm using microplate reader.
Experimental for HT29 cells: as §1
Experimental for Interleukin-4 (IL-4): Take spleens of BALB/c gene reported mice, culture in RPMI1640 medium (HyClone). • 2. Spleen will be ground into single cell suspension, add red blood cell lysis buffer (sigma) to suspension, for cracking the red blood cells. • 3. […] Dissolved compounds with DMSO and diluted with RPMI1640 medium containing 10% serum, diluted to a final concentration of 200 nM. • 5. […] After mixing, cells were added to 96 well plates, every hole is 100 μL. […] Each compound and control is three-hole wells, cultured at 37° C. for 48 h. • 6. After 48 h, the plates removed from the incubator and each well was collected in the flow tube (BD). • 7. Added cells to ice pre-cooling of PBS (phosphate buffer solution) solution to wash, and in 100 μL of PBS, join the fluorescent antibody CD4 0.5 μL, put in ice 15 min avoid light. • 8. After dyeing wash antibodies with the ice pre-cooling PBS solution. And prepare for flow cytometric detection. • 9. Using flow cytometry (BD FACS calibur) select the CD4+ cell populations, and detect GFP+ cells accounted for the percentage of CD4+ cells, to determine the impact of compounds on IL-4. • 10.
(§2) Control was DMSO and its concentration was same as the final concentration of test compounds.
Experimental for TNF-α: Take spleens of BALB/c gene reported mice, cultured in RPMI1640 medium (HyClone). Spleen was ground into single cell suspension, added red blood cell lysis buffer (sigma) to suspension, for cracking the red blood cells • 2. […] Dissolved compounds with DMSO and diluted with RPMI1640 medium containing 10% serum, diluted to a final concentration of 200 nM. • 4. Cells were added to 96 well plates, every hole was 100 μL. […] Each compound and control is three-hole wells. • 5. Cultured at 37° C. for 24 h. • 6. […] Using ELISA (enzyme-linked immunosorbent assay) technique for the determination of the amount of TNF-α in the 24 hours.
as §2

By IC50 is commonly meant the concentration that gives 50% inhibition. By inhibition is commonly meant the drop in the measured response relative to a control, in per cent. For the molecule `O=C(NOCCO)c1cc2snnc2c(F)c1Nc1ccc(I)cc1F` [Compound 17, 4-fluoro-5-((2-fluoro-4-iodophenyl)amino)-N-(2-hydroxyethoxy)benzo[d][1,2,3]thiadiazole-6-carboxamide], the half-inhibitory concentration (IC50) was 0.24 nM with A375 cells and 1 nM in the assay with HT29 cells. The inhibition at 0.1 µM was not above 50% in the assay with Interleukin-4 (IL-4) and not above 40% in the assay on TNF-α. For the same molecule, the “Tumor growth inhibition (TGI)” value in assay [1] is listed as 88.75%. Further, the “Tumor growth inhibition vs vehicle control group” value with COLO 205 tumor xenograft is given as 95.35%.
